Data taken from patent publication US6855710B2, “Substituted indolines with an inhibitory effect on various kinases and complexes of CDKs” (Boehringer Ingelheim Pharma KG, priority 1998, dated 2005).

Row | melting point | Compound
1 | 233 to 235 °C | CCOC(=O)CNC(=O)c1cccc(N/C(=C2\C(=O)Nc3ccccc32)c2ccccc2)c1 [Example 23, (Z)-3-[1-(3-ethoxycarbonylmethylaminocarbonyl-phenylamino)-1-phenyl-methylidene]-2-indolinone]
2 | 148 to 150 °C | CCOC(=O)CN(C)C(=O)c1cccc(N/C(=C2\C(=O)Nc3ccccc32)c2ccccc2)c1 [Example 25, (Z)-3-{1-[3-(N-ethoxycarbonylmethyl-N-methyl-aminocarbonyl)-phenylamino]-1-phenyl-methylidene}-2-indolinone]
3 | 218 to 220 °C | CN(CC(=O)O)C(=O)c1cccc(N/C(=C2\C(=O)Nc3ccccc32)c2ccccc2)c1 [Example 26, (Z)-3-{1-[3-(N-carboxymethyl-N-methyl-aminocarbonyl)-phenyl-amino]-1-phenyl-methylidene}-2-indolinone]
4 | 285 to 288 °C | CC(=O)Nc1cccc(N/C(=C2\C(=O)Nc3ccccc32)c2ccccc2)c1 [Example 32, (Z)-3-[1-(3-acetylamino-phenylamino)-1-phenyl-methylidene]-2-indolinone]
5 | 224 to 227 °C | CN(C(=O)C(F)(F)F)c1cccc(N/C(=C2\C(=O)Nc3ccccc32)c2ccccc2)c1 [Example 36, (Z)-3-{1-[3-(N-trifluoroacetyl-N-methyl-amino)-phenylamino]-1-phenyl-methylidene}-2-indolinone]
6 | 247 to 248 °C | CNc1cccc(N/C(=C2\C(=O)Nc3ccccc32)c2ccccc2)c1 [Example 37, (Z)-3-[1-(3-methylamino-phenylamino)-1-phenyl-methylidene]-2-indolinone]
7 | 237 to 239 °C | CC(=O)N(C)c1cccc(N/C(=C2\C(=O)Nc3ccccc32)c2ccccc2)c1 [Example 38, (Z)-3-{1-[3-(N-acetyl-N-methylamino)-phenylamino]-1-phenyl-methylidene}-2-indolinone]
8 | > 260 °C (dec.) | CC(=O)O.N=C(N)c1ccc(N/C(=C2\C(=O)Nc3ccccc32)c2ccccc2)cc1 [Example 62, (Z)-3-{1-[N-(4-amidinophenyl)-amino]-1-phenyl-methylidene}-2-indolinone-hydroacetate]
9 | 235 to 237 °C | N=C(N)c1cccc(N/C(=C2\C(=O)Nc3ccccc32)c2ccccc2)c1 [Example 64, (Z)-3-[1-(3-amidinophenylamino)-1-phenyl-methylidene]-2-indolinone]
10 | 248 to 250 °C | CNC(=N)c1cccc(N/C(=C2\C(=O)Nc3ccccc32)c2ccccc2)c1 [Example 65, (Z)-3-{1-[3-(N-methylcarbamimidoyl)-phenylamino]-1-phenyl-methylidene}-2-indolinone]
11 | 238 to 242 °C | CN(C)C(=N)c1cccc(N/C(=C2\C(=O)Nc3ccccc32)c2ccccc2)c1 [Example 66, (Z)-3-{1-[3-(N,N-dimethylcarbamimidoyl)-phenylamino)-1-phenyl-methylidene}-2-indolinone]
12 | 175 to 185 °C | NCc1cccc(N/C(=C2\C(=O)Nc3ccccc32)c2ccccc2)c1 [Example 68, (Z)-3-[1-(3-aminomethyl-phenylamino)-1-phenyl-methylidene]-2-indolinone]
13 | 267 to 268 °C | Nc1cccc(N/C(=C2\C(=O)Nc3ccccc32)c2ccccc2)c1 [Example 69, (Z)-3-[1-(3-aminophenylamino)-1-phenyl-methylidene]-2-indolinone]

Continued, compound first:

Row | Compound | melting point
14 | CC(C)(C)OC(=O)Nc1ccc(N/C(=C2\C(=O)Nc3ccccc32)c2ccccc2)cc1 [Example 28, (Z)-3-[1-(4-tert.butoxycarbonylamino-phenylamino)-1-phenyl-methylidene]-2-indolinone] | 244 to 246 °C
15 | O=CNc1ccc(N/C(=C2\C(=O)Nc3ccccc32)c2ccccc2)cc1 [Example 29, (Z)-3-[1-(4-formylamino-phenylamino)-1-phenyl-methylidene]-2-indolinone] | 268 to 269 °C
16 | O=CNc1cccc(N/C(=C2\C(=O)Nc3ccccc32)c2ccccc2)c1 [Example 30, (Z)-3-[1-(3-formylamino-phenylamino)-1-phenyl-methylidene]-2-indolinone] | 231 °C
17 | CC(=O)Nc1ccc(N/C(=C2\C(=O)Nc3ccccc32)c2ccccc2)cc1 [Example 31, (Z)-3-[1-(4-acetylamino-phenylamino]-1-phenyl-methylidene]-2-indolinone] | 236 to 238 °C
18 | O=C1Nc2ccccc2/C1=C(/Nc1cccc(NC(=O)C(F)(F)F)c1)c1ccccc1 [Example 33, (Z)-3-[1-(3-trifluoroacetylamino-phenylamino)-1-phenyl-methylidene]-2-indolinone] | 273 to 276 °C
19 | CC(C)(C)OC(=O)NCC(=O)Nc1ccc(N/C(=C2\C(=O)Nc3ccccc32)c2ccccc2)cc1 [Example 34, (Z)-3-[1-(4-tert.butoxycarbonylaminomethylcarbonylamino-phenylamino)-1-phenyl-methylidene]-2-indolinone] | 243 to 244 °C (dec.)
20 | CCC(=O)Nc1ccc(N/C(=C2\C(=O)Nc3ccccc32)c2ccccc2)cc1 [Example 39, (Z)-3-[1-(4-propionylamino-phenylamino)-1-phenyl-methylidene]-2-indolinone] | 255 to 256 °C
21 | COCC(=O)Nc1ccc(N/C(=C2\C(=O)Nc3ccccc32)c2ccccc2)cc1 [Example 40, (Z)-3-[1-(4-methoxymethylcarbonylamino-phenylamino)-1-phenyl-methylidene]-2-indolinone] | 238 to 240 °C
22 | CN(C)CC(=O)Nc1ccc(N/C(=C2\C(=O)Nc3ccccc32)c2ccccc2)cc1 [Example 41, (Z)-3-[1-(4-dimethylaminomethylcarbonylamino-phenylamino)-1-phenyl-methylidene]-2-indolinone] | 234 to 236 °C
23 | O=C(CN1CCOCC1)Nc1ccc(N/C(=C2\C(=O)Nc3ccccc32)c2ccccc2)cc1 [Example 43, (Z)-3-[1-(4-morpholinomethylcarbonylamino-phenylamino)-1-phenyl-methylidene]-2-indolinone] | 246 to 248 °C
24 | CCNC(=O)Nc1ccc(N/C(=C2\C(=O)Nc3ccccc32)c2ccccc2)cc1 [Example 45, (Z)-3-[1-(4-ethylaminocarbonylamino-phenylamino)-1-phenyl-methylidene]-2-indolinone] | 264 to 265 °C
25 | CCCCNC(=O)Nc1ccc(N/C(=C2\C(=O)Nc3ccccc32)c2ccccc2)cc1 [Example 46, (Z)-3-[1-(4-butylaminocarbonylamino-phenylamino)-1-phenyl-methylidene]-2-indolinone] | 216 to 217 °C
26 | CC(=O)N(C)c1ccc(N/C(=C2\C(=O)Nc3ccccc32)c2ccccc2)cc1 [Example 47, (Z)-3-{1-[4-(N-acetyl-N-methyl-amino)-phenylamino]-1-phenyl-methylidene}-2-indolinone] | 287 to 288 °C
27 | CCN(CC)CC(=O)N(C)c1ccc(N/C(=C2\C(=O)Nc3ccccc32)c2ccccc2)cc1 [Example 49, (Z)-3-{1-[4-(N-Diethylaminomethylcarbonyl-N-methyl-amino)-phenylamino]-1-phenyl-methylidene}-2-indolinone] | 242 to 247 °C
28 | CN(C(=O)CN1CCCCC1)c1ccc(N/C(=C2\C(=O)Nc3ccccc32)c2ccccc2)cc1 [Example 50, (Z)-3-{1-[4-(N-piperidinomethylcarbonyl-N-methyl-amino)-phenylamino]-1-phenyl-methylidene}-2-indolinone] | 230 to 235 °C (dec.)
29 | CN(C(=O)CN1CCN(Cc2ccccc2)CC1)c1ccc(N/C(=C2\C(=O)Nc3ccccc32)c2ccccc2)cc1 [Example 53, (Z)-3-{1-[4-(N-(4-benzylpiperazinomethylcarbonyl)-N-methyl-amino)-phenylamino]-1-phenyl-methylidene}-2-indolinone] | 157 to 158 °C
30 | NCc1ccc(N/C(=C2\C(=O)Nc3ccccc32)c2ccccc2)cc1 [Example 55, (Z)-3-[1-(4-aminomethyl-phenylamino)-1-phenyl-methylidene]-2-indolinone] | 236 to 237 °C
31 | CC(=O)NCc1ccc(N/C(=C2\C(=O)Nc3ccccc32)c2ccccc2)cc1 [Example 56, (Z)-3-[1-(4-acetylaminomethyl-phenylamino)-1-phenyl-methylidene]-2-indolinone] | 207 to 210 °C
32 | CC(C)(C)OC(=O)NCC(=O)NCc1ccc(N/C(=C2\C(=O)Nc3ccccc32)c2ccccc2)cc1 [Example 57, (Z)-3-[1-(4-tert.butoxycarbonylaminomethylcarbonylaminomethyl-phenylamino)-1-phenyl-methylidene}-2-indolinone] | 218 to 220 °C
33 | CC(=O)c1ccc(N/C(=C2\C(=O)Nc3ccccc32)c2ccccc2)cc1 [Example 60, (Z)-3-[1-(4-acetylphenylamino)-1-phenyl-methylidene]-2-indolinone] | 207 to 209 °C
34 | CN(C(=C1C(=O)Nc2ccccc21)c1ccccc1)c1ccc(C#N)cc1 [Example 61, 3-{1-[N-(4-cyanophenyl)-N-methyl-amino]-1-phenyl-methylidene}-2-indolinone] | 239 °C
35 | CC(C)(C)OC(=O)NCc1cccc(N/C(=C2\C(=O)Nc3ccccc32)c2ccccc2)c1 [Example 67, (Z)-3-[1-(3-tert.butoxycarbonylaminomethyl-phenylamino)-1-phenyl-methylidene]-2-indolinone] | 190 to 195 °C
36 | CN1C(=O)/C(=C(\Nc2cccc(C#N)c2)c2ccccc2)c2ccccc21 [Example 73, (Z)-1-methyl-3-[1-(3-cyanophenylamino)-1-phenyl-methylidene]-2-indolinone] | 158 to 160 °C
37 | CN(C)CC(=O)NCc1ccc(N/C(=C2\C(=O)Nc3ccccc32)c2ccccc2)cc1 [Example 74, (Z)-3-[1-(4-dimethylaminomethylcarbonylaminomethyl-phenylamino)-1-phenyl-methylidene}-2-indolinone] | 200 to 205 °C
38 | COCC(=O)NCc1ccc(N/C(=C2\C(=O)Nc3ccccc32)c2ccccc2)cc1 [Example 76, (Z)-3-[1-(4-methoxymethylcarbonylaminomethyl-phenylamino)-1-phenyl-methylidene]-2-indolinone] | 178 to 180 °C
